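Protocol summary: plate cells (96-well), add compound at 5 concentrations, incubate 48 h, interpolate endpoints linearly. The concentration for full growth arrest is given as TGI.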
Legend:
Assay in all cases: NCI tumour cell line growth inhibition, 48 h
[1] = system: 786-0 renal
[2] = system: A549 NSCLC
[3] = system: CAKI-1 renal
[4] = system: CCRF-CEM leukemia
[5] = system: COLO 205 colon
[6] = system: DU-145 prostate
[7] = system: EKVX NSCLC
[8] = system: HCC-2998 colon
[9] = system: HCT-15 colon
[10] = system: HL-60(TB) leukemia
[11] = system: HOP-62 NSCLC
[12] = system: HOP-92 NSCLC
[13] = system: HT29 colon
[14] = system: IGROV1 ovarian
[15] = system: K-562 leukemia
[16] = system: KM12 colon
[17] = system: LOX IMVI melanoma
[18] = system: M14 melanoma
[19] = system: MALME-3M melanoma
[20] = system: MCF7 breast
[21] = system: MDA-MB-231 breast
[22] = system: MDA-MB-435
[23] = system: MDA-N
[24] = system: MOLT-4 leukemia
[25] = system: NCI-H23 lung
[26] = system: OVCAR-4 ovarian
[27] = system: OVCAR-8 ovarian
[28] = system: PC-3 prostate
[29] = system: RPMI-8226 leukemia
[30] = system: RXF 393 renal
[31] = system: SF-268 CNS
[32] = system: SF-295 CNS
[33] = system: SK-MEL-28 melanoma
[34] = system: SK-MEL-5 melanoma
[35] = system: SK-OV-3 ovarian
[36] = system: SN12C renal
[37] = system: SNB-75 CNS
[38] = system: SR leukemia
[39] = system: SW-620 colon
[40] = system: T-47D breast
[41] = system: TK-10 renal
[42] = system: UACC-257 melanoma
[43] = system: UACC-62 melanoma
[44] = system: A498 renal
[45] = system: ACHN renal
[46] = system: HCT-116 colon
[47] = system: NCI-H226 lung
[48] = system: NCI-H460 lung
[49] = system: NCI-H522 lung
[50] = system: NCI/ADR-RES ovarian
[51] = system: OVCAR-3 ovarian
[52] = system: SF-539 CNS
[53] = system: SK-MEL-2 melanoma
[54] = system: SNB-19 CNS
[55] = system: U251 CNS
[56] = system: UO-31 renal

**Q.** `CCOC(=O)N1CCC2C(=C(C)C(C)C3=C2C(=O)c2ccccc2C3=O)C1` (stereo unspecified) was tested. Which TGI [1] did it give?
**A.** The TGI was over 10 µM.

**Q.** What about the TGI [2] of the same molecule?
**A.** The TGI was over 10 µM.

**Q.** What about the TGI [3] of the same molecule?
**A.** The TGI was over 10 µM.

**Q.** What about the TGI [4] of the same molecule?
**A.** The TGI was over 10 µM.

**Q.** And the TGI [5]?
**A.** Its TGI is over 10 µM.

**Q.** And the TGI [6]?
**A.** The TGI was over 10 µM.

**Q.** And the TGI [7]?
**A.** Its TGI is over 10 µM.

**Q.** And the TGI [8]?
**A.** Its TGI is over 10 µM.

**Q.** And the TGI [9]?
**A.** The TGI was over 10 µM.

**Q.** What about the TGI [10] of the same molecule?
**A.** Its TGI is 5.15 µM.

**Q.** What about the TGI [11] of the same molecule?
**A.** Its TGI is over 10 µM.

**Q.** And the TGI [12]?
**A.** The TGI was over 10 µM.

**Q.** And the TGI [13]?
**A.** Its TGI is over 10 µM.

**Q.** And the TGI [14]?
**A.** Its TGI is over 10 µM.

**Q.** And the TGI [15]?
**A.** Its TGI is over 10 µM.

**Q.** And the TGI [16]?
**A.** The TGI was over 10 µM.

**Q.** What about the TGI [17] of the same molecule?
**A.** Its TGI is over 10 µM.

**Q.** What about the TGI [18] of the same molecule?
**A.** Its TGI is over 10 µM.

**Q.** What about the TGI [19] of the same molecule?
**A.** Its TGI is 6.77 µM.

**Q.** And the TGI [20]?
**A.** The TGI was over 10 µM.

**Q.** What about the TGI [21] of the same molecule?
**A.** Its TGI is over 10 µM.

**Q.** And the TGI [22]?
**A.** The TGI was 4.53 µM.

**Q.** What about the TGI [23] of the same molecule?
**A.** The TGI was over 10 µM.

**Q.** What about the TGI [24] of the same molecule?
**A.** Its TGI is over 10 µM.

**Q.** And the TGI [25]?
**A.** Its TGI is over 10 µM.

**Q.** What about the TGI [26] of the same molecule?
**A.** The TGI was over 10 µM.

**Q.** And the TGI [27]?
**A.** The TGI was over 10 µM.

**Q.** And the TGI [28]?
**A.** The TGI was over 10 µM.

**Q.** What about the TGI [29] of the same molecule?
**A.** The TGI was over 10 µM.

**Q.** What about the TGI [30] of the same molecule?
**A.** Its TGI is over 10 µM.

**Q.** And the TGI [31]?
**A.** Its TGI is over 10 µM.

**Q.** What about the TGI [32] of the same molecule?
**A.** Its TGI is over 10 µM.

**Q.** What about the TGI [33] of the same molecule?
**A.** The TGI was over 10 µM.

**Q.** What about the TGI [34] of the same molecule?
**A.** Its TGI is 4.27 µM.

**Q.** And the TGI [35]?
**A.** Its TGI is over 10 µM.

**Q.** And the TGI [36]?
**A.** The TGI was over 10 µM.

**Q.** And the TGI [37]?
**A.** The TGI was over 10 µM.

**Q.** And the TGI [38]?
**A.** Its TGI is over 10 µM.

**Q.** And the TGI [39]?
**A.** The TGI was over 10 µM.

**Q.** What about the TGI [40] of the same molecule?
**A.** The TGI was over 10 µM.

**Q.** And the TGI [41]?
**A.** The TGI was over 10 µM.

**Q.** And the TGI [42]?
**A.** The TGI was over 10 µM.

**Q.** What about the TGI [43] of the same molecule?
**A.** The TGI was over 10 µM.

**Q.** With `CC(=O)OCC1OC(n2c(C)c(C(C)=O)c(-c3ccc(Cl)cc3)c(C#N)c2=S)C(OC(C)=O)C(OC(C)=O)C1OC(C)=O` (stereo unspecified) as the molecule, how does the TGI [1] read?
**A.** Its TGI is over 100 µM.

**Q.** And the TGI [44]?
**A.** Its TGI is over 100 µM.

**Q.** What about the TGI [2] of the same molecule?
**A.** The TGI was over 100 µM.

**Q.** What about the TGI [45] of the same molecule?
**A.** Its TGI is over 100 µM.

**Q.** What about the TGI [4] of the same molecule?
**A.** The TGI was over 100 µM.

**Q.** And the TGI [5]?
**A.** Its TGI is over 100 µM.

**Q.** And the TGI [6]?
**A.** Its TGI is over 100 µM.

**Q.** What about the TGI [8] of the same molecule?
**A.** Its TGI is over 100 µM.

**Q.** And the TGI [46]?
**A.** The TGI was over 100 µM.

**Q.** What about the TGI [9] of the same molecule?
**A.** Its TGI is over 100 µM.

**Q.** What about the TGI [10] of the same molecule?
**A.** The TGI was over 100 µM.

**Q.** And the TGI [11]?
**A.** The TGI was over 100 µM.

**Q.** And the TGI [12]?
**A.** Its TGI is over 100 µM.

**Q.** What about the TGI [13] of the same molecule?
**A.** The TGI was over 100 µM.

**Q.** And the TGI [14]?
**A.** Its TGI is over 100 µM.

**Q.** And the TGI [15]?
**A.** The TGI was over 100 µM.

**Q.** And the TGI [16]?
**A.** Its TGI is over 100 µM.

**Q.** And the TGI [17]?
**A.** Its TGI is over 100 µM.

**Q.** What about the TGI [18] of the same molecule?
**A.** The TGI was over 100 µM.

**Q.** What about the TGI [19] of the same molecule?
**A.** Its TGI is over 100 µM.

**Q.** What about the TGI [20] of the same molecule?
**A.** Its TGI is over 100 µM.

**Q.** What about the TGI [21] of the same molecule?
**A.** Its TGI is over 100 µM.

**Q.** What about the TGI [22] of the same molecule?
**A.** The TGI was over 100 µM.

**Q.** And the TGI [23]?
**A.** Its TGI is over 100 µM.

**Q.** And the TGI [24]?
**A.** The TGI was over 100 µM.

**Q.** What about the TGI [47] of the same molecule?
**A.** Its TGI is over 100 µM.

**Q.** What about the TGI [25] of the same molecule?
**A.** Its TGI is over 100 µM.

**Q.** What about the TGI [48] of the same molecule?
**A.** Its TGI is over 100 µM.

**Q.** And the TGI [49]?
**A.** Its TGI is over 100 µM.

**Q.** What about the TGI [50] of the same molecule?
**A.** Its TGI is over 100 µM.

**Q.** And the TGI [51]?
**A.** Its TGI is over 100 µM.

**Q.** What about the TGI [26] of the same molecule?
**A.** The TGI was over 100 µM.

**Q.** What about the TGI [27] of the same molecule?
**A.** Its TGI is over 100 µM.

**Q.** What about the TGI [28] of the same molecule?
**A.** The TGI was over 100 µM.

**Q.** What about the TGI [30] of the same molecule?
**A.** The TGI was over 100 µM.

**Q.** And the TGI [31]?
**A.** The TGI was over 100 µM.

**Q.** What about the TGI [32] of the same molecule?
**A.** Its TGI is over 100 µM.

**Q.** And the TGI [52]?
**A.** The TGI was over 100 µM.

**Q.** What about the TGI [53] of the same molecule?
**A.** The TGI was over 100 µM.

**Q.** And the TGI [33]?
**A.** Its TGI is over 100 µM.

**Q.** What about the TGI [34] of the same molecule?
**A.** Its TGI is over 100 µM.

**Q.** What about the TGI [35] of the same molecule?
**A.** Its TGI is over 100 µM.

**Q.** What about the TGI [36] of the same molecule?
**A.** The TGI was over 100 µM.

**Q.** And the TGI [54]?
**A.** The TGI was over 100 µM.

**Q.** What about the TGI [37] of the same molecule?
**A.** The TGI was over 100 µM.

**Q.** What about the TGI [38] of the same molecule?
**A.** The TGI was over 100 µM.

**Q.** And the TGI [39]?
**A.** The TGI was over 100 µM.

**Q.** What about the TGI [40] of the same molecule?
**A.** Its TGI is over 100 µM.

**Q.** What about the TGI [41] of the same molecule?
**A.** Its TGI is over 100 µM.

**Q.** And the TGI [55]?
**A.** The TGI was over 100 µM.

**Q.** What about the TGI [42] of the same molecule?
**A.** Its TGI is over 100 µM.

**Q.** And the TGI [43]?
**A.** Its TGI is over 100 µM.

**Q.** What about the TGI [56] of the same molecule?
**A.** Its TGI is over 100 µM.

Reference: PubChem BioAssay (NCI)
